Experimental data published in paper PMC9324262, “Selective CDK9 Inhibition by Natural Compound Toyocamycin in Cancer Cells” (Cancers, 2022).

What was measured:
HCT116 cells = assay: cell cycle analysis by flow cytometry; assay type: cell-based, human
Method: For cell cycle analysis, cells were cultured in T25 flasks, trypsinized, and washed with PBS. Then, 1 × 10^6 cells were fixed in 100% cold ethanol overnight at −20 °C. Cells were then washed with PBS and treated with 100 μg/mL RNase A (Invitrogen, Waltham, MA USA) for 20 min, at 37 °C. DNA was stained with 5 μg/mL propidium iodide (Sigma, St. Louis, MO, USA). The cell cycle was analyzed by flow cytometry using a Guava® easyCyte HT System (Millipore) with GuavaSoft 3.2 software.

CDK2/Cyclin 2A = target: T1, CDK2/Cyclin 2A (Homo sapiens, UniProt P24941); assay: biochemical; conditions: 10 µM ATP, 30 °C, 60 min
T1 construct: purchased BPS Bioscience
Method: (§1) The in vitro enzymatic assays were conducted at BPS Bioscience. CDK9/Cyclin T1, CDK2/Cyclin 2A, CDK4/Cyclin D3, and CDK6/Cyclin D3 enzymatic activities were tested with an ATP Kinase-Glo Plus Luminescence kinase assay kit (Promega, V6073, Madison, WI, USA), while the CDK7/Cyclin H/MAT1 activities were tested using ADP-Glo Kinase (Promega, V6930). These assays measure kinase activity by quantifying the amount of ATP or ADP remaining in solution following a kinase reaction. The luminescent signal from the assay is correlated to the amount of ATP or ADP present and is inversely correlated to the kinase activity. The compounds were diluted to 10% DMSO and were added to the reaction so that the final concentration of DMSO was 1% in all reactions. All enzymatic reactions were conducted at 30 °C for 60 min. […] After the enzymatic reaction, the luminescence signal was measured using a BioTek Synergy 2 microplate reader (Agilent, Santa Clara, CA, USA). Kinase activity assays were performed in duplicate at each concentration and the percent of kinase activity was calculated as a ratio of luminescence intensities in the absence or in presence of the compounds. […] IC50 values were determined by the concentration causing a half-maximal percent activity (BPS Bioscience, San Diego, CA, USA).

CDK7/Cyclin H/MAT1 = target: T2, CDK7/Cyclin H/MAT1 (Homo sapiens, UniProt P50613); assay: in vitro kinase assay CDK7/Cyclin H/MAT1 (ADP-Glo); assay type: biochemical
T2 construct: purchased BPS Bioscience
Method: as §1

[1] = cell viability by Viacount, YB5; assay type: cell-based; conditions: human, YB5 colon cancer cells; 24 and 72 h, 50 nM to 50 µM, highest doses; read-out: cell viability relative to untreated cells
Method: Cell viability was measured in YB5 and HCT166 cells using Viacount (Luminex, Austin, TX, USA, 4000-0040) on a Guava flow cytometer (Millipore, Burlington, MA, USA). Colon cancer cells were grown in 96-well plates in the same conditions as in the drug screen and treated with toyocamycin and known CDK9 inhibitor BAY1251152 (Selleckchem, Houston, TX, USA). Cell culture media of each well was collected to harvest floating dead cells and kept aside for later. Cells were trypsinized (0.25% trypsin, Gibco, Waltham, MA, USA) for 5 min at 37 °C. Cell culture media of each well was added back to their corresponding wells to stop trypsinization and mixed thoroughly to obtain a single cell suspension. Viacount solution (Luminex, Austin, TX, USA, 4000-0040, 25 μL) was added to each well, and incubated (5 min at room temperature, in the dark) prior to cell viability analysis on the Guava flow cytometer.

[2] = system: HCT116 SFRP1-GFP colon cancer cells; assay: GFP reactivation in HCT116 SFRP1-GFP model; assay type: cell-based, human; conditions: dose-response
Method: YB5 cells are derived from SW48 cells (human colon cancer cell line), and contain a single insertion of a DNA hypermethylated cytomegalovirus (CMV) promoter driving the green fluorescent protein (GFP) gene, as previously described. YB5 cells are cultured in L-15 medium supplemented with 10% fetal bovine serum and grown in log-phase in 1% CO2 atmosphere. YB5 cells were authenticated by DNA fingerprinting prior to drug screening and validation experiments. GFP expression in YB5 cells is silenced in >99.9% of the cells due to the CMV promoter DNA hypermethylation and repressive chromatin marks around the transcriptional start site. The human HCT116 colon cancer-derived GFP-reporter system, comprising a GFP gene under the control of an endogenously hypermethylated SFRP1 gene promoter, was kindly provided by Dr. Stephen Baylin (Johns Hopkins University). These cells are cultured in McCoy’s 5A medium supplemented with 10% fetal bovine serum and grown in log-phase in 5% CO2 atmosphere at 37 °C. […]
After treatment, YB5 cells were trypsinized for 15 min and resuspended in L-15 media containing propidium iodide (PI) to stain dead cells. GFP expression and PI staining were quantified by a BD LSR II flow cytometer (BD Biosciences, San Jose, CA, USA). A maximum of 10,000 cells was analyzed per well. […]

[3] = 6 h treatment followed by 18 h without exposure

T2 sequence (P50613 whole entry): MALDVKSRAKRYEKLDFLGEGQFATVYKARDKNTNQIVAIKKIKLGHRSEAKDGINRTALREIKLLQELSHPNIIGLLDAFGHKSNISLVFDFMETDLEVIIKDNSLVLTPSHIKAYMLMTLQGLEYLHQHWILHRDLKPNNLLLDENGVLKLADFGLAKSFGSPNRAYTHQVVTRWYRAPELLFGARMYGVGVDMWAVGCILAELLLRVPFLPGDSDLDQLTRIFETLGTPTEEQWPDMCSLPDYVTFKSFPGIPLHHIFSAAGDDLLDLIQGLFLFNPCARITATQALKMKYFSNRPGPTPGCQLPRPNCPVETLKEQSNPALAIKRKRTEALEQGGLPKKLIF
T2 sequence (P51946 whole entry partner): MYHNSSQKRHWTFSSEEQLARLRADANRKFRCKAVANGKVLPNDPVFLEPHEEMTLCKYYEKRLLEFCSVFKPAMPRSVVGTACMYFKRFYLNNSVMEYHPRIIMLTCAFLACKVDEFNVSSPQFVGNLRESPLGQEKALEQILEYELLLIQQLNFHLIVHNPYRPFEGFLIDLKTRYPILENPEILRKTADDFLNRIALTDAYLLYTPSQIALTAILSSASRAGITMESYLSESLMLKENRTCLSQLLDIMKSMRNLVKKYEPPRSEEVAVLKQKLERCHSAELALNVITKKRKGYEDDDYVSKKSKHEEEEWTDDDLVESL
T2 sequence (P51948 whole entry partner): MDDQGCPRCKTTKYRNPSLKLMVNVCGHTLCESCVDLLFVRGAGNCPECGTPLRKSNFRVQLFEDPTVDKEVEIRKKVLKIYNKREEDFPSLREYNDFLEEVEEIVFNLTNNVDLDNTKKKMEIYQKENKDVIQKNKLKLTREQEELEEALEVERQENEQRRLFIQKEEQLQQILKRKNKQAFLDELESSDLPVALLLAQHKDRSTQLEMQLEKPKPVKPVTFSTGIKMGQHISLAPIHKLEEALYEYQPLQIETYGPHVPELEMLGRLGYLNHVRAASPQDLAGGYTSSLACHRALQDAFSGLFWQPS

SMILES: N#Cc1cn([C@@H]2O[C@H](CO)[C@@H](O)[C@H]2O)c2ncnc(N)c12 [toyocamycin, 7-Deaza-7-cyanoadenosine]
- apoptotic cells (HCT116 cells; [3]): 10%
- cell cycle (HCT116 cells; [3]): not significantly impacted
- cell cycle (HCT116 cells; 24 h treatment, 500–1000 nM): significantly blocked the cell cycle
- IC50 (CDK2/Cyclin 2A): 670 nM
- IC50 (CDK7/Cyclin H/MAT1): 2800 nM
- times less enzymatic inhibition of CDK7 as compared to CDK9 (CDK7/Cyclin H/MAT1; CDK7/Cyclin H/MAT1 vs CDK9/CycT1): 35 times
- viability [1]: > 50%
- GFP expression [2]: induced dose-dependent GFP expression
